Data: US20230303483A1, “USE OF STROBILURIN TYPE COMPOUNDS FOR COMBATING PHYTOPATHOGENIC FUNGI CONTAINING AN AMINO ACID SUBSTITUTION F129L IN THE MITOCHONDRIAL CYTOCHROME B PROTEIN CONFERRING RESISTANCE TO QO […]” (BASF SE, priority 2020, published 2023)

Tests used:
[1] = tested on: Phakopsora pachyrhizi (strain containing the amino acid substitution F129L in the mitochondrial cytochrome b protein); test: Use example 1: protective control of soybean rust on soybeans (PHAKPA P2), inoculation 2 days after spraying; assay type: in vivo; settings: % diseased leaf area on soybean, 16 ppm spray, inoculation 2 days after treatment, untreated controls usually >85 %
Procedure: (§1) The compound was dissolved in a mixture of acetone and/or dimethylsulfoxide and the wetting agent/emulsifier Wettol, which is based on ethoxylated alkylphenoles, in a ratio (volume) solvent-emulsifier of 99 to 1 to give a total volume of 5 ml. Subsequently, water was added to total volume of 100 ml. This stock solution was then diluted with the described solvent-emulsifier-water mixture to the final concentration given in the table below.
Use example 1. Protective control of soybean rust on soybeans caused by Phakopsora pachyrhizi (PHAKPA P2)
(§2) Leaves of potted soybean seedlings were sprayed to run-off with the previously described spray solution, containing the concentration of active ingredient or their mixture as described below. The plants were allowed to air-dry. The trial plants were cultivated for 2 days in a greenhouse chamber at 23-27° C. and a relative humidity between 60 and 80 %. Then the plants were inoculated with spores of Phakopsora pachyrhizi. The strain used contains the amino acid substitution F129L in the mitochondrial cytochrome b protein conferring resistance to Qo inhibitors. To ensure the success the artificial inoculation, the plants were transferred to a humid chamber with a relative humidity of about 95 % and 20 to 24° C. for 24 hr. The trial plants were cultivated for up to 14 days in a greenhouse chamber at 23 to 27° C. and a relative humidity between 60 and 80 %. The extent of fungal attack on the leaves was visually assessed as % diseased leaf area, the disease level of untreated controls was usually higher than 85 %.
(§3) All test results below are given for the control of phytopathogenic fungi containing the amino acid substitution F129L in the mitochondrial cytochrome b protein conferring resistance to Qo inhibitors.

[2] = tested on: Phakopsora pachyrhizi (strain containing the amino acid substitution F129L in the mitochondrial cytochrome b protein); test: Use example 2: protective control of soybean rust on soybeans (PHAKPA P6), inoculation six days after spraying; assay type: in vivo; settings: % diseased leaf area on soybean, 16 ppm spray, inoculation six days after treatment, untreated controls usually >85 %
Procedure: as §1
Use example 2. Protective control of soybean rust on soybeans caused by Phakopsora pachyrhizi (PHAKPA P6)
as §2, with “active ingredient as described” for “active ingredient or their mixture as described”, “cultivated for six days in” for “cultivated for 2 days in”, “% and 23 to 27°” for “% and 20 to 24°”, “23 to 27° C. for” for “20 to 24° C. for”
as §3

Row | SMILES | PHAKPA Disease level (%) P2 at 16 ppm [1] [%] | PHAKPA Disease level (%) P6 at 16 ppm [2] [%]
1 | CO/N=C(/C(=O)OC)c1ccccc1CO/N=C(\C)C#Cc1c(C2CC2)cccc1C(F)(F)F [Example 108] | 90 | 87
2 | CNC(=O)/C(=N/OC)c1ccccc1CO/N=C(\C)C#Cc1ccc(Br)cc1 [Example 55] | 23 | 40
3 | CO/N=C(/C(=O)OC)c1cccc(C)c1CO/N=C(\C)C#Cc1cccc(OC(F)(F)F)c1 [Example 28] | 0 | 0
4 | CO/N=C(/C(=O)OC)c1ccccc1CO/N=C(\C)C#Cc1ccccc1F [Example 60] | 40 | 17
5 | CO/N=C(/C(=O)OC)c1ccccc1CO/N=C(\C)C#Cc1ccccc1OC(F)(F)F [Example 10] | 70 | 83
6 | CO/N=C(/C(=O)OC)c1cccc(C)c1CO/N=C(\C)C#Cc1ccccc1F [Example 61] | 8 | 8
7 | CO/N=C(/C(=O)OC)c1ccccc1CO/N=C(\C)C#Cc1ccc(Oc2ccc(F)cc2)cc1 [Example 100] | 77 | 77
8 | CO/N=C(/C(=O)OC)c1ccccc1CO/N=C(\C)C#Cc1cccc(OC(F)(F)F)c1 [Example 52] | 13 | 33
9 | CO/N=C(/C(=O)OC)c1ccccc1CO/N=C(\C)C#Cc1ccccc1Br [Example 46] | 47 | 37
10 | CO/N=C(/C(=O)OC)c1ccccc1CO/N=C(\C)C#Cc1cccc2c1OC(F)(F)O2 [Example 103] | 28 | 22
11 | CNC(=O)/C(=N/OC)c1ccccc1CO/N=C(\C)C#Cc1ccccc1F [Example 62] | 2 | 2
12 | CNC(=O)/C(=N/OC)c1ccccc1CO/N=C(\C)C#Cc1ccc(Cl)cc1F [Example 83] | 17 | 22
13 | CNC(=O)/C(=N/OC)c1ccccc1CO/N=C(\C)C#Cc1ccc(OCC(F)(F)F)cc1 [Example 104] | 53 | 32
14 | CO/N=C(/C(=O)OC)c1cccc(C)c1CO/N=C(\C)C#Cc1ccccc1Br [Example 45] | 25 | 22
15 | CNC(=O)/C(=N/OC)c1cccc(C)c1CO/N=C(\C)C#Cc1ccc(F)cc1 [Example 33] | 0 | 0
16 | CNC(=O)/C(=N/OC)c1ccccc1CO/N=C(\C)C#Cc1ccc(OC2CC2)cc1 [Example 106] | 23 | 13
17 | CO/N=C(/C(=O)OC)c1ccccc1CO/N=C(\C)C#Cc1ccc(C(F)(F)F)cc1 [Example 65] | 80 | 70
18 | CNC(=O)/C(=N/OC)c1cccc(C)c1CO/N=C(\C)C#Cc1cccc(C(F)(F)F)c1 [Example 40] | 0 | 0
19 | CNC(=O)/C(=N/OC)c1cccc(C)c1CO/N=C(\C)C#Cc1ccccc1F [Example 63] | 0 | 0
20 | CO/N=C(/C(=O)OC)c1ccccc1CO/N=C(\C)C#Cc1ccc(OC(F)(F)F)cc1 [Example 12, methyl(2E)-2-methoxyimino-2-[2-[[(E)-[1-methyl-3-[4-(trifluoromethoxy)phenyl]prop-2-ynylidene]amino]oxymethyl]phenyl]acetate] | 93 | 100
21 | CO/N=C(/C(=O)OC)c1ccccc1CO/N=C(\C)C#Cc1cccc(Cl)c1 [Example 71] | 20 | 17
22 | CO/N=C(/C(=O)OC)c1ccccc1CO/N=C(\C)C#Cc1ccc(Cl)cc1 [Example 3] | 70 | 70
23 | CNC(=O)/C(=N/OC)c1cccc(C)c1CO/N=C(\C)C#Cc1ccccc1Cl [Example 78] | 0 | 0

Row | SMILES | PHAKPA Disease level (%) P2 at 16 ppm [1] [%] | PHAKPA Disease level (%) P6 at 16 ppm [2] [%]
24 | CNC(=O)/C(=N/OC)c1ccccc1CO/N=C(\C)C#Cc1ccccc1C [Example 51] | 0 | 0
25 | CNC(=O)/C(=N/OC)c1cccc(C)c1CO/N=C(\C)C#Cc1ccccc1Br [Example 47] | 0 | 0
26 | CO/N=C(/C(=O)OC)c1ccccc1CO/N=C(\C)C#Cc1ccc2c(c1)OC(F)(F)O2 [Example 85] | 100 | 83
27 | CO/C=C(/C(=O)OC)c1cccc(C)c1CO/N=C(\C)C#Cc1ccc(F)c(C(=O)OC)c1 [Example 122] | 73 | 60
28 | CNC(=O)/C(=N/OC)c1cccc(C)c1CO/N=C(\C)C#Cc1cccc(Cl)c1 [Example 77] | 0 | 0
29 | CO/N=C(/C(=O)OC)c1ccccc1CO/N=C(\C)C#Cc1ccc(OC(F)(F)F)cc1C1CC1 [Example 121] | 87 | 53
30 | CO/N=C(/C(=O)OC)c1ccccc1CO/N=C(\C)C#Cc1cccc(C(F)(F)F)c1 [Example 41] | 50 | 67
31 | CO/N=C(/C(=O)OC)c1cccc(C)c1CO/N=C(\C)C#Cc1ccc(Br)cc1 [Example 56] | 18 | 37
32 | CO/N=C(/C(=O)OC)c1cccc(C)c1CO/N=C(\C)C#Cc1ccccc1Cl [Example 75] | 22 | 40
33 | CNC(=O)/C(=N/OC)c1cccc(C)c1CO/N=C(\C)C#Cc1ccccc1C [Example 49] | 0 | 0
34 | CO/N=C(/C(=O)OC)c1ccccc1CO/N=C(\C)C#Cc1ccccc1Cl [Example 74] | 42 | 47
35 | CNC(=O)/C(=N/OC)c1ccccc1CO/N=C(\C)C#Cc1ccccc1Br [Example 48] | 0 | 2
36 | CO/N=C(/C(=O)OC)c1ccccc1CO/N=C(\C)C#Cc1c(Cl)cccc1Cl [Example 93] | 87 | 97
37 | CO/N=C(/C(=O)OC)c1cccc(C)c1CO/N=C(\C)C#Cc1ccc(F)cc1C(=O)OC [Example 127] | 53 | 47
38 | CNC(=O)/C(=N/OC)c1cccc(C)c1CO/N=C(\C)C#Cc1ccccc1C(F)(F)F [Example 68] | 0 | 1
39 | CNC(=O)/C(=N/OC)c1ccccc1CO/N=C(\C)C#Cc1cccc(F)c1 [Example 37] | 6 | 8
40 | CNC(=O)/C(=N/OC)c1ccccc1CO/N=C(\C)C#Cc1cccc(C)c1 [Example 58] | 2 | 4
41 | CNC(=O)/C(=N/OC)c1ccccc1CO/N=C(\C)C#Cc1ccc(OC(C)C)cc1 [Example 88] | 77 | 60
42 | COC/C(C#Cc1ccc(Cl)cc1)=N\OCc1ccccc1/C(=N\OC)C(=O)OC [Example 113] | 87 | 77
43 | CNC(=O)/C(=N/OC)c1cccc(C)c1CO/N=C(\C)C#Cc1cccc(Br)c1 [Example 29] | 1 | 0
44 | CO/N=C(/C(=O)OC)c1cccc(C)c1CO/N=C(\C)C#Cc1ccc(C(F)(F)F)cc1 [Example 64] | 43 | 60
45 | CNC(=O)/C(=N/OC)c1ccccc1CO/N=C(\C)C#Cc1ccccc1C(F)(F)F [Example 69] | 1 | 2
